From patent US20050208146A1, “Novel dosage and administration method for oral camptosar” (Pfizer Inc, priority 2003, published 2005)
Where “and” joins values, the source holds several entries; their conditions need not be identical. Equal values may be shown once. Entries after “also recorded” stand apart in the source; their conditions may differ.

Tests used:
solid tumors = assay: Best overall tumor response in patients treated with oral irinotecan; assay type: in vivo, human; settings: oral irinotecan daily x5 q 3 weeks
Description: (§1) The protocol had two stages, Stage A directed to dose escalation and Stage B directed to pharmacokinetics and bioavailability measurement. Patients were treated as in Table 3. […] MTD is defined as the dose level below which 2/3 or preferably 2/6 patients experience DLT.
(§2) In addition, evidence of antitumor activity can be evaluated.

[1] = Dose escalation to MTD, DLT and grade 3/4 toxicities of oral irinotecan semi-solid matrix capsules in patients with solid tumors; assay type: in vivo, human; settings: for DLT (kind and grade) / Pts with DLT: first cycle
Description: Patients were treated as in Table 3. […]
Oral irinotecan can be formulated as follows.
The patients received starting doses of 50 (n=7), 60 (n=32), or 70 (n=4) mg/m^2/d. […] See also Tables 6 and 7.

clinical [2] = settings: for AUC(0-inf): 60 mg/m2, AUC0-inf; for Cmax: 60 mg/m2, Cmax
Description: as §1, §2

clinical [3] = settings: human
[4] = Comparison of exposure over 6-week period, oral vs IV irinotecan
[5] = All Cycles, 60 mg/m^2/day, N=32
[6] = IV Irinotecan, weekly x 4 q 6 weeks x 1 cycle, N=99
[7] = plasma, irinotecan 60 mg/m^2 IV, N=14
[8] = plasma, irinotecan 60 mg/m^2 PO, N=14

SMILES: CCc1c2c(nc3ccc(OC(=O)N4CCC(N5CCCCC5)CC4)cc13)-c1cc3c(c(=O)n1C2)COC(=O)[C@]3(O)CC [irinotecan, 7-ethyl-10-[4-(1-piperidino)-1-piperidino]-carbonyloxycamptothecin]
- best overall tumor response: partial responses (solid tumors; esophageal and small cell lung cancer): Two confirmed partial responses
- best overall tumor response: stable disease cases (solid tumors; variety of tumor types): thirteen stable disease cases
- Grade 3 and 4 Diarrhea ([1]; All Cycles, 50 mg/m^2/day, N=7): 14%
- Grade 3 and 4 Nausea ([1]; All Cycles, 50 mg/m^2/day, N=7): 14%
- Grade 3 and 4 Diarrhea [1, 5]: 16%
- Grade 3 and 4 Nausea [1, 5]: 9%
- Grade 3 and 4 Neutropenia [1, 5]: 9%
- Grade 3 and 4 Neutropenic Fever [1, 5]: 3%
- Grade 3 and 4 Vomiting [1, 5]: 12%
- Grade 3 and 4 Diarrhea ([1]; All Cycles, 70 mg/m^2/day, N=4): 50%
- Grade 3 and 4 Nausea ([1]; All Cycles, 70 mg/m^2/day, N=4): 3%
- Grade 3 and 4 Neutropenia ([1]; All Cycles, 70 mg/m^2/day, N=4): 25%
- Grade 3 and 4 Neutropenic Fever ([1]; All Cycles, 70 mg/m^2/day, N=4): 25%
- Grade 3 and 4 Vomiting ([1]; All Cycles, 70 mg/m^2/day, N=4): 3%
- Grade 3 and 4 Diarrhea ([1]; Cycle 1, 50 mg/m^2/day, N=7): 14%
- Grade 3 and 4 Nausea ([1]; Cycle 1, 50 mg/m^2/day, N=7): 14%
- Grade 3 and 4 Diarrhea ([1]; Cycle 1, 60 mg/m^2/day, N=32): 13%
- Grade 3 and 4 Nausea ([1]; Cycle 1, 60 mg/m^2/day, N=32): 6%
- Grade 3 and 4 Neutropenia ([1]; Cycle 1, 60 mg/m^2/day, N=32): 3%
- Grade 3 and 4 Vomiting ([1]; Cycle 1, 60 mg/m^2/day, N=32): 9%
- Grade 3 and 4 Diarrhea ([1]; Cycle 1, 70 mg/m^2/day, N=4): 50%
- Grade 3 and 4 Neutropenia ([1]; Cycle 1, 70 mg/m^2/day, N=4): 25%
- Grade 3 and 4 Neutropenic Fever ([1]; Cycle 1, 70 mg/m^2/day, N=4): 25%
- recommended phase 11 dose ([1]; SSM oral irinotecan, for 5 days every 3 wks): 60 mg/m^2/daily
- DLT (kind and grade) ([1]; Stage A, 50 mg/m^2/day oral): G3 diarrhea, G3 nausea, G3 dehydration; also recorded: Gr. 3 Nausea; also recorded: Gr. 3 Diarrhea; also recorded: Gr. 3 Dehydration
- Pts with DLT ([1]; Stage A, 50 mg/m^2/day oral, 7 evaluable): 1/7 and 1
- DLT (kind and grade) ([1]; Stage A, 60 mg/m^2/day oral): None
- Pts with DLT ([1]; Stage A, 60 mg/m^2/day oral, 8 evaluable): 0/8 and 0
- DLT (kind and grade) ([1]; Stage A, 70 mg/m^2/day oral): G3 diarrhea, G4 ANC [absolute neutrophil counts]; G4 diarrhea, fever, dehydration, fatigue; also recorded: Pt 1: gr. 3 Diarrhea,; also recorded: Pt 2: gr. 4 Diarrhea,; also recorded: gr. 4 Dehydration
- Pts with DLT ([1]; Stage A, 70 mg/m^2/day oral, 4 evaluable): 2/4 and 2
- DLT (kind and grade) ([1]; Stage B, 60 mg/m^2/day oral): Pt 1: Gr. 3 Diarrhea; also recorded: Pt 2: Gr. 3 Dehydration; also recorded: Pt 7: Gr. 3 Diarrhea
- Pts with DLT ([1]; Stage B, 60 mg/m^2/day oral, 24 evaluable): 7
- MTD ([1]; oral, encapsulated semi-solid matrix, daily x5 q 3 weeks): 60 mg/m^2/day
- bioavailability (clinical [2]; human, in vivo, Absolute bioavailabiity of irinotecan, Mean ± SD): 24 ± 23%
- bioavailability (clinical [2]; human, in vivo, Absolute bioavailabiity of irinotecan, Median): 15.4%
- bioavailability (clinical [2]; human, in vivo, Absolute bioavailabiity of irinotecan, range): 7.1 to 96%
- Tmax (clinical [2]; human, in vivo, iv, 60 mg/m2): End of 1.5-h
- AUC(0-inf) (clinical [2]; human, in vivo, iv, mean ± SD): 3020 ± 830 ng·h/mL
- AUC(0-inf) (clinical [2]; human, in vivo, iv, median): 2610 ng·h/mL
- AUC(0-inf) (clinical [2]; human, in vivo, iv, range): 1720 to 4790 ng·h/mL
- Cmax (clinical [2]; human, in vivo, iv, mean ± SD): 627 ± 142 ng/mL
- Cmax (clinical [2]; human, in vivo, iv, median): 593 ng/mL
- Cmax (clinical [2]; human, in vivo, iv, range): 416 to 897 ng/mL
- tmax, mean ± SD (clinical [2]; human, in vivo, po, 60 mg/m2): 3.15 ± 2.00 h
- AUC(0-inf) (clinical [2]; human, in vivo, po, mean ± SD): 732 ± 665 ng·h/mL
- AUC(0-inf) (clinical [2]; human, in vivo, po, median): 619 ng·h/mL
- AUC(0-inf) (clinical [2]; human, in vivo, po, range): 167 to 2500 ng·h/mL
- Cmax (clinical [2]; human, in vivo, po, mean ± SD): 73.1 ± 67.6 ng/mL
- Cmax (clinical [2]; human, in vivo, po, median, plasma, irinotecan 60 mg/m^2 PO, N=14): 60.1 ng/mL
- Cmax (clinical [2]; human, in vivo, po, range, plasma, irinotecan 60 mg/m^2 PO, N=14): 9.49 to 274 ng/mL
- Tmax (clinical [2]; human, in vivo, po, 60 mg/m2, tmax, mean ± SD): 3 ± 2.2 h
- Tmax (clinical [2]; human, in vivo, po, 60 mg/m2, tmax, range): 1 to 10 h
- bioavailability (clinical [2]; human, in vivo, po, absolute bioavailability (mean±SD)): 25 ± 23%
- AUC(0-inf) (clinical [3]; in vivo, iv): 42000 ng·h/mL
- Cmax (clinical [3]; in vivo, iv): 1500 ng/mL
- AUC(0-inf) (clinical [3]; plasma, po, 60 mg/m^2/daily): 7320 ng·h/mL
- Cmax (clinical [3]; plasma, po, 60 mg/m^2/daily): 73.1 ng/mL

SMILES: CCc1c2c(nc3ccc(O)cc13)-c1cc3c(c(=O)n1C2)COC(=O)[C@]3(O)CC [SN-38, 7-ethyl-10-hydroxycamptothecin]
- AUC0-inf, exposure over 6-week period [4, 6]: 1,068 ng h/ml
- Cmax [4, 6]: 28 ng/mL
- Cmax ([4]; Oral Irinotecan, daily x 5 q 3 weeks x 2 cycles, N=14): 7.2 ng/mL
- AUC0-inf, mean ± SD (clinical [2]; irinotecan 60 mg/m^2 IV, N=14): 167 ± 77.8 ng·h/mL
- AUC0-inf, median (clinical [2]; irinotecan 60 mg/m^2 IV, N=14): 169 ng·h/mL
- AUC0-inf, range (clinical [2]; irinotecan 60 mg/m^2 IV, N=14): 55.1 to 358 ng·h/mL
- t1/2, mean ± SD (clinical [2]; irinotecan 60 mg/m^2 IV, N=14): 22.95 ± 19.41 h
- t1/2, median (clinical [2]; irinotecan 60 mg/m^2 IV, N=14): 19.31 h
- t1/2, range (clinical [2]; irinotecan 60 mg/m^2 IV, N=14): 8.63 to 94.9 h
- tmax, median (clinical [2]; irinotecan 60 mg/m^2 IV, N=14): 0.5 h
- tmax, range (clinical [2]; irinotecan 60 mg/m^2 IV, N=14): 0 to 2.0 h
- tmax, mean ± SD (clinical [2]; irinotecan 60 mg/m^2 IV, N=14, measured from start of 1.5-h infusion): 2.18 ± 1.99^2 h
- PO/IV SN-38 AUC Ratio, Mean ± SD (clinical [2]; irinotecan 60 mg/m^2 PO vs IV): 0.504±0.195
- PO/IV SN-38 AUC Ratio, Median (clinical [2]; irinotecan 60 mg/m^2 PO vs IV): 0.447
- PO/IV SN-38 AUC Ratio, range (clinical [2]; irinotecan 60 mg/m^2 PO vs IV): 0.257-0.945
- AUC0-inf, mean ± SD (clinical [2]; irinotecan 60 mg/m^2 PO, N=14): 84.1 ± 54.7 ng·h/mL
- AUC0-inf, median (clinical [2]; irinotecan 60 mg/m^2 PO, N=14): 70.7 ng·h/mL
- AUC0-inf, range (clinical [2]; irinotecan 60 mg/m^2 PO, N=14): 22.8 to 223.6 ng·h/mL
- t1/2, mean ± SD (clinical [2]; irinotecan 60 mg/m^2 PO, N=14): 14.2 ± 5.87 h
- t1/2, median (clinical [2]; irinotecan 60 mg/m^2 PO, N=14): 13.4 h
- t1/2, range (clinical [2]; irinotecan 60 mg/m^2 PO, N=14): 4.7 to 25.7 h
- tmax, mean ± SD (clinical [2]; irinotecan 60 mg/m^2 PO, N=14): 2.97 ± 2.21 h
- tmax, median (clinical [2]; irinotecan 60 mg/m^2 PO, N=14): 2 h
- tmax, range (clinical [2]; irinotecan 60 mg/m^2 PO, N=14): 1.0 to 10.0 h
- AUC of SN-38 following oral irinotecan as % of the value from an equivalent IV dose (mean±SD) (clinical [2]; oral vs equivalent IV dose of irinotecan): 50±20%
- Cmax, mean ± SD (clinical [2]; [7]): 15.94 ± 7.83 ng/mL
- Cmax, median (clinical [2]; [7]): 13.8 ng/mL
- Cmax, range (clinical [2]; [7]): 7.26 to 36.9 ng/mL
- Cmax, mean ± SD (clinical [2]; [8]): 7.17 ± 3.90 ng/mL
- Cmax, median (clinical [2]; [8]): 3.91 ng/mL
- Cmax, range (clinical [2]; [8]): 1.31 to 14.8 ng/mL
